According to patent publication EP0934932A1 (MEIJI SEIKA KABUSHIKI KAISHA, priority 1996, dated 1998):

Target: T1, human dopamine D4 receptor (Homo sapiens, UniProt P21917)
T1 construct: expressed in transfected cells
T1 sequence (P21917 1-419): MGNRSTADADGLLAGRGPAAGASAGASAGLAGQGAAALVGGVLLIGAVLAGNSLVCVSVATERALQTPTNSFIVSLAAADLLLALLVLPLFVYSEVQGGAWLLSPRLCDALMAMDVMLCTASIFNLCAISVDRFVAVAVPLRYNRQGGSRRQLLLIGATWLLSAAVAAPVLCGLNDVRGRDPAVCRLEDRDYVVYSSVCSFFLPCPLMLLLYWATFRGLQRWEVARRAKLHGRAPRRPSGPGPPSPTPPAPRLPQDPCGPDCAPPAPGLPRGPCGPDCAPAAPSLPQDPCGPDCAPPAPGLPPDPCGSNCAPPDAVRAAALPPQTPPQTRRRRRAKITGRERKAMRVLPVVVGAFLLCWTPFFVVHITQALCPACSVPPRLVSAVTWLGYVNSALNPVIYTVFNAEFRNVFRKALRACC
Experiment: Binding affinity for dopamine D4 receptor ([3H]-spiperone displacement, membrane fraction)
Settings: cloned human dopamine D4 receptor; [3H]-spiperone 0.2nM; 37°C for 30 min; Ki from IC50 by the equation of Cheng and Prusoff
Experimental: Cells that express cloned human dopamine D4 receptor were harvested in an assay buffer (50mM Tris-HCl, pH7.4, containg 120 mM NaCl, 5 mM KCl, 1mM MgCl2, and 1 mM CaCl2) and homogenized in a potter type homogenizer. The membrane fraction was centrifuged at 39000 g for 20 min at 4°C. The pellet was suspended in 1 ml of the assay buffer per cells from dish having a diameter of 10 cm and was again homogenated. The aliquots (100µl) was added to the buffer containing [^3H]-spiperone of a final concentration of 0.2nM and a test compound to the final assay volume of 300µl, which was then incubated at 37°C for 30 min. The incubation was stopped by rapid filtration on a GF/B filter. Washing with 5 ml of ice-cold 50 mM Tris-HCl (pH 7.4) was then carried out. The radioactivity was measured with a packered liquid scintillation counter. The amount of nonspecific binding was determined in the presence of 1 µM spiperone, and the amount of the specific binding was then determined by subtracting the amount of the nonspecific binding from the total binding. For each compound, IC50 was determined by a regression analysis using a nonlinear least square method. The Ki value was then calculated by the equation of Cheng and Prusoff.

| Structure (SMILES) | Ki [nM] |
| --- | --- |
| O=c1ccc2ccccc2n1CCCN1CCN(CC2CCCCC2)CC1 [Example 1, 1-[3-(4-Cyclohexanemethyl-1-piperazinyl)-propyl]-2(1H)-quinolinone] | 7.6 |
| O=c1ccc2ccccc2n1CCCN1CCN(Cc2ccc(F)c(F)c2)CC1 [Example 3, 1-[3-[4-(3,4-Difluorobenzyl)-1-piperazinyl]-propyl]-2(1H)-quinolinone] | 18 |
| O=C1CCc2ccccc2N1CCN1CCN(CC2CCCCC2)CC1 [Example 10 (A), 1-[2-(4-Cyclohexanemethyl-1-piperazinyl)-ethyl]-3,4-dihydro-2(1H)-quinolinone] | 34 |
| O=c1ccc2ccccc2n1CCCN1CCC(Oc2ccc(Cl)cc2)CC1 [Example 20, 1-[3-[4-(4-Chlorophenoxy)-1-piperidinyl]-propyl]-2(1H)-quinolinone] | 2 |
| O=c1ccc2ccccc2n1CCCC1CCN(Cc2ccc(F)c(F)c2)CC1 [Example 24, 1-[3-[1-(3,4-Difluorobenzyl)-4-piperidinyl]-propyl]-2 (1H)-quinolinone] | 6 |
| O=C1COc2ccccc2N1CCCC1CCN(Cc2ccc(F)cc2)CC1 [Example 27, 1-[3-[1-(4-Fluorobenzyl)-4-piperidinyl]-propyl]-4H-benzo[1,4]oxazin-3-one] | 29 |
| O=C1CCc2ccccc2N1CCCC1CCN(Cc2ccc(F)c(F)c2)CC1 [Example 30, 1-[3-[1-(3,4-Difuorobenzyl)-4-piperidinyl]-propyl]-3,4-dihydro-2 (1H)-quinolinone] | 5.7 |
| O=C1CSc2ccccc2N1CCCC1CCN(Cc2ccc(F)cc2)CC1 [Example 32] | 7.6 |
| O=C1CSc2ccccc2N1CCCC1CCN(Cc2ccc(Cl)cc2)CC1 [Example 33] | 1 |

Other lines, results leading:

| Ki [nM] | Structure (SMILES) |
| --- | --- |
| 5.1 | O=C1COc2ccccc2N1CCCC1CCN(Cc2ccc(Cl)cc2)CC1 [Example 29, 1-[3-[1-(4-Chlorobenzyl)-4-piperidinyl]-propyl]-4H-benzo[1,4]oxazin-3-one] |
| 5.9 | O=C1CCc2ccccc2N1CCCC1CCN(Cc2ccc(F)cc2F)CC1 [Example 39, 1-[3-[1-(2,4-Difluorobenzyl)-4-piperidinyl]propyl]-3,4-dihydro-2(1H)-quinolinone] |
| 1.1 | O=C1CCc2ccccc2N1CCCC1CCN(Cc2ccc(Cl)cc2)CC1 [Example 41, 1-[3-[1-(4-Chlorobenzyl)-4-piperidinyl]-propyl]-3,4-dihydro-2 (1H)-quinolinone] |
| 2.8 | Cc1ccccc1CN1CCC(CCCN2C(=O)CCc3ccccc32)CC1 [Example 44, 1-[3-[1-(2-Methylbenzyl)-4-piperidinyl]-propyl]-3,4-dihydro-2(1H)-quinolinone] |
| 7.5 | Cc1cccc(CN2CCC(CCCN3C(=O)CCc4ccccc43)CC2)c1 [Example 54, 1-[3-[1-(3-Methylbenzyl)-4-piperidinyl]-propyl]-3,4-dihydro-2(1H)-quinolinone] |
| 1 | Cc1ccc(CN2CCC(CCCN3C(=O)CCc4ccccc43)CC2)cc1 [Example 55, 1-[3-[1-(4-Methylbenzyl)-4-piperidinyl]-propyl]-3,4-dihydro-2 (1H)-quinolinone] |
